Structures are written as SMILES. pIC50: −log10 of the molar value.

Data set [1] deals with PARP cleavage and CHOP expression in THJ29T and THJ16T. Nature of the data set: Western blot for PARP cleavage and CHOP expression, combinatorial therapy. In kind it is cell-based. As to conditions: EC50 doses, 48H. As for the experimental part:
(§1) Protein extraction and western blot analysis was performed as previously described (Copland J A, Marlow L A, Kurakata S, et al. Novel high-affinity PPARgamma agonist alone and in combination with paclitaxel inhibits human anaplastic thyroid carcinoma tumor growth via p21WAF1/CIP1. Oncogene. Apr 13 2006; 25(16):2304-2317). Primary antibodies included SCD1 (Sigma-Aldrich, #HPA012107), BiP (Cell Signaling, #3183), CHOP (Cell Signaling, #2895), sXBP1(Santa Cruz Biotechnology, #sc-7160), PARP(Cell Signaling, #9542), and β-actin (Sigma-Aldrich, #A5441).
THJ29T and THJ16T treated for 48H with EC50 doses of either A939572 or MF-438 in combination with either carfilzomib or bortezomib were probed for PARP cleavage and CHOP expression, both markers indicative of apoptosis (FIGS. 14A-B, 15A-B). […] Cell death was additionally examined via flow cytometry using propidium iodide staining. THJ29T and THJ16T were treated for 48H with EC50 doses of either A939572 or MF-438 in combination with either carfilzomib or bortezomib prior to staining and analysis.

Data set [2] relates to THJ16T ATC cell xenograft. Put plainly: THJ16T xenograft model. In kind it is in vivo, female athymic nu/nu mice. On the procedure: Formalin-fixed, paraffin-embedded subject tissues were mounted on slides, blocked with Diluent (DakoCytomation) for 30 min, and then probed for SCD (Sigma-Aldrich, #HPA012107). IHC scoring was performed as previously described (von Roemeling C A, Marlow L A, Wei J J, et al. Stearoyl-CoA desaturase 1 is a novel molecular therapeutic target for clear cell renal cell carcinoma. Clin Cancer Res. May 1 2013; 19(9):2368-2380). Cases where insufficient tumor tissue presented were excluded. 20× images were obtained using Scanscope XT and Imagescope software.
1×10^6 THJ16T ATC cells were subcutaneously injected in female athymic nu/nu mice (Harlan Laboratories). Treatment was initiated once tumor volumes reached 50-100 mm^3. MF-438 was suspended in 0.5% carboxymethyl-cellulose containing strawberry drink flavoring(0.1 g/mL) in sterilized H2O at 25 mg/kg in a 100 μl dose, and administered via oral gavage once daily. Carfilzomib was solubilized in DMSO (4% of FC), suspended in 100% corn oil at 4 mg/kg per 50 uL dose and administered via intraperitoneal injection twice weekly on consecutive days. Tumor volume(0.5236[L*W*H]) and body weight were measured 2×/week. N=10 mice/group.
MF-438 was tested in combination with carfilzomib in vivo in a THJ16T xenograft model. […] J Clin Endocrinol Metab. 2010; 95(12):5338-47). […] Saline was administered as necessary. These adverse events resolved 24-48 hours after the second administration of carfilzomib. […] However, no other significant adverse events were observed. […] IHC analysis of tumors resected from each treatment group was performed.

In a further data set the test system is ATC cells. Put plainly: Proliferative dose response of thyroid cells. The settings on record: THJ29T, THJ16T, and KTC2; 72H. The format is cell-based. On the procedure:
(§2) Cells were seeded at 5,000 cells/well in clear-bottom 96-well plates in triplicate in Maintenance Media. Drug treatment was applied at a concentration of 1:1000 in reduced serum (3%) Maintenance Media. After 72 hours, cells were washed with PBS, and stored at −80° C. prior to analysis using CyQuant® Proliferation Analysis Kit (Invitrogen) as per manufacturers' protocol for relative fluorescence units. Alternatively, cells were plated 2×10^5/well in 12-well plates (Midwest Scientific) in triplicate prior to drug treatment. After 120 hour treatment, cell number was established using a Coulter Particle Counter (Beckman). Or, cells were plated (0.5 or 1×10^5/well) in 24-well plates (Midwest Scientific), 3×. After 72 hour treatment, cell number established using Coulter Particle Counter (Beckman). Oleic acid-albumin (Sigma Aldrich) was added to media at 5 μM, and was applied adjuvant to drug treatment. Drug stocks were prepared in DMSO (Sigma) at 1000×. EC50 dosing per cell line was calculated using CalcuSyn® analytical software.
The efficacy of pharmacologic inhibition of this enzyme on tumor cell proliferation after a 72H treatment was determined, using A939572-a commercially available small molecule SCD1 inhibitor (Xin Z, Zhao H, Serby M D, Liu B, Liu M, Szczepankiewicz B G, Nelson L T, Smith H T, Suhar T S, Janis R S, Cao N, Camp H S, Collins C A, Sham H L, Surowy T K, Liu G. Discovery of piperidine-aryl urea-based stearoyl-CoA desaturase 1 inhibitors. Bioorg Med Chem Lett. 2008; 18(15):4298-302). […] Despite conspicuous SCD1 expression in 4 of the 5 FTC cells tested, no response to A939572 was observed (FIG. 10D).
THJ29T, THJ16T, and KTC2 were treated with carfilzomib (FIG. 12A) or bortezomib for 72H in order to establish EC50 values. […] Anti-proliferative drug synergy was evaluated in THJ29T and THJ16T treated with either A939572 or MF-438 in combination with either bortezomib or carfilzomib for 48H. Synergy was assessed using CalcuSyn analytical software, which determines the combination index (CI) based on the Chou-Talalay method where CI values >1 represent an antagonistic effect and values <1 represent synergy, and lower values signify enhanced synergy (Chou T C, Talalay P. Analysis of Combined Drug Effects—a New Look at a Very Old Problem. Trends in Pharmacological Sciences. 1983; 4(11):450-4).

In data set [3] the test system is BiP and CHOP expression in A498 and ACHN cells. Put plainly: Western blot for UPR markers BiP and CHOP. The format is cell-based. As to conditions: EC50 dose; both cell lines; blocked with concomitant OA treatment. As for the experimental part:
as §1
(§3) Activating transcription factor 6 (ATF6) is a key regulator of the unfolded protein response (UPR) that recognizes unfolded protein response elements (UPRE) in the promoter regions of several key mediators of the ER stress response, initiating their transcription (Wang Y, Shen J, Arenzana N, Tirasophon W, Kaufman R J, Prywes R. Activation of ATF6 and an ATF6 DNA binding site by the endoplasmic reticulum stress response. J Biol Chem. Sep. 1, 2000; 275(35):27013-27020). A498 and ACHN transfected with an ATF6-UPRE luciferase reporter were treated with the EC50 doses of ChemBL375265, SSI-1, SSI-4, SSI-3, and SSI-2 with or without OA supplementation were evaluated in order to determine whether the identified compounds could recapitulate activation of the UPR. […] Upregulation of the UPR markers BiP (heat shock 70 kDa protein, GRP78) and CHOP (damage inducible transcript 3, DDIT3) was evaluated by Western blot in A498 and ACHN cells treated with the EC50 doses of ChemBL375265, SSI-1, SSI-4, SSI-3, and SSI-2 with or without OA supplementation.

In data set [4] the test system is A498, ACHN, and Caki1 cell lines. Put plainly: Oleic acid (OA) rescue assay of cell proliferation in ccRCC cells. In kind it is cell-based. The settings on record: EC50 dose of compound with OA (5 μg/μL); all three cell lines. As for the experimental part:
as §2
A498, ACHN, and Caki1 cell lines were treated with the EC50 dose of each MF-438, ChemBL375265, SSI-1, SSI-4, SSI-3, and SSI-2 with or without concomitant application of OA (5 μg/μL). […] Representative images of A498 cell morphology and density treated with each compound +/−OA are shown in (FIG. 2B).

Data set [5] has as its system ATF6-UPRE luciferase reporter in A498 and ACHN cells. Nature of the data set: ATF6-UPRE luciferase reporter assay. The format is cell-based. The settings on record: EC50 dose. As for the experimental part:
A498 and ACHN cells were transiently transfected with p5×ATF6-GL3 UPR luciferase reporter (Addgene plasmid#11976) and pRL-CMV-renilla (Promega) using Lipofectamine 2000 (Invitrogen). Cells were treated as indicated for 24H, prior to collection and analysis using Promega Dual Luciferase assay kit per manufacturer's specifications. Luciferase activity was measured using Veritas Luminometer (Promega); and results are reported as relative luminescence.
as §3

The next data set has as its system kidney cancer cells. Nature of the data set: Combination with mTor inhibitor temsirolimus, cell proliferation. In kind it is cell-based. As to conditions: different concentrations with 0, 0.1, 1, and 10 nM temsirolimus.
For data set [6], the system named is HK2, a transformed renal epithelial cell line. Nature of the data set: High-throughput proliferative screen, non-cancerous cells. The format is cell-based. On the procedure: as §2
In order to identify potential SCD1 inhibitors, a high-throughput proliferative-based screening method was used, with four ccRCC cell lines including A498, ACHN, Caki1, and Caki2. The SCD1 inhibitor MF-438 was included as a positive control. Known compounds ChemBL375265 (Liu G, Lynch J K, Freeman J, et al. Discovery of potent, selective, orally bioavailable stearoyl-CoA desaturase 1 inhibitors. Journal of medicinal chemistry. Jun. 28, 2007; 50(13): 3086-3100) (SetA.100) and SAR707 (Voss M D, Zoller G, Matter H, et al. Discovery and pharmacological characterization of SAR707 as novel and selective small molecule inhibitor of stearoyl-CoA desaturase (SCD1). European journal of pharmacology. May 5, 2013; 707(1-3): 140-146) (TC03.100) were included as single-blinded positive controls, and are indicated with an asterisk (*). […]

The next data set has as its target T1, SCD1 (Homo sapiens, UniProt O00767).
T1 sequence (O00767 1-359): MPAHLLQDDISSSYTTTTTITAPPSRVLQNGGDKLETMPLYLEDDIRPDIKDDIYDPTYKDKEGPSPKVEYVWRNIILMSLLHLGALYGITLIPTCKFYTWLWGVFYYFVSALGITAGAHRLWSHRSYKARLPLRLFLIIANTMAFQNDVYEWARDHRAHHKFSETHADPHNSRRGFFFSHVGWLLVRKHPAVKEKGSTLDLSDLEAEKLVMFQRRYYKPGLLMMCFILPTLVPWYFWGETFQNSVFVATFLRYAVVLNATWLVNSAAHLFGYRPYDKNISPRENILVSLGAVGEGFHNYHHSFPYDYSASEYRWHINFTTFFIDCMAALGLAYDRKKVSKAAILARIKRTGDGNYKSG
The settings on record: known inhibitors; cited from earlier work.

[7] abbreviates: 24H, both cell lines A498 and ACHN, completely blocked with OA.

For the compound `CC(C)C[C@H](NC(=O)[C@H](CCc1ccccc1)NC(=O)CN1CCOCC1)C(=O)N[C@@H](Cc1ccccc1)C(=O)N[C@@H](CC(C)C)C(=O)[C@@]1(C)CO1` [carfilzomib], the “PARP cleavage as compared to DMSO control” value in [1] is on record as “significant PARP cleavage”. Moreover, the “reduction in mean tumor burden as compared to the placebo control” value in data set [2] (MF-438 25 mg/kg oral once daily, carfilzomib 4 mg/kg i.p. twice weekly) came out at 21%. The “tumor response / mean tumor volume course” value in [2] (THJ16T xenograft) is on record as “temporarily plateau”. For the same compound, in data set [2] (mice bearing THJ16T xenograft), the adverse events result is “Dehydration and acute inflammation”. Moreover, the “survivin expression (IHC)” value in data set [2] (mouse, in vivo) was “induced survivin expression”. In addition, in [2] (versus placebo control), the “CD31 (IHC), tumor vascularization” value is “trend toward decreased CD31” and the “ki67 staining (IHC of resected tumors)” value is given as “trend of decreased ki67 staining”. In [2] (versus placebo control, only the combination group achieved statistical significance), the “cleaved caspase-3 (IHC)” value is “increased cleaved caspase-3”. Besides, the “HERPUD1 (IHC), marker for ER stress” value in [2] (versus placebo control, statistically significant combinatorial values) is listed as “Increased HERPUD1”. Moreover, the EC50 result in the data set with ATC cells was “low nanomolar dose range”.

Regarding `CC(C)C[C@H](NC(=O)[C@H](Cc1ccccc1)NC(=O)c1cnccn1)B(O)O` [bortezomib], the EC50 entry in the data set on ATC cells is “low nanomolar dose range”.

Turning to `O=C(NCc1ccnc(OCc2ccccc2)c1)N1CCN(C(=O)c2ccccc2C(F)(F)F)CC1` [SSI-3], the “BiP and CHOP expression” value in data set [3] was “strongly induced both BiP and CHOP expression”. In [4], the “rescue of cell proliferation with OA” value is “Near total rescue of cell proliferation”. Moreover, the luciferase activity entry in [5] (ACHN cells) was “induced reversible luciferase activity”.

Consider `O=C(Nc1ccc(OCc2ccccc2)nc1)N1CCN(C(=O)c2ccccc2C(F)(F)F)CC1` [SSI-2, 2-(benzyloxy)-5-{[hydroxy({4-[2-(trifluoromethyl)benzoyl]piperazin-1-yl})methyl]amino}-1,2-dihydropyridin-2-ylium-1-ide], for which the “BiP and CHOP expression” value in data set [3] is “strongly induced both BiP and CHOP expression”. Also, in the data set on kidney cancer cells, the “kidney cancer cell proliferation” value is “reduced kidney cancer cell proliferation”. Further, in data set [4], the “rescue of cell proliferation with OA” value is “Near total rescue of cell proliferation”. In data set [6], the “reduction in cell proliferation” value is reported as “approximately 20%”. Also, the luciferase activity result in data set [5] (setting [7]) was “significant upregulation of luciferase activity”.

With `CNC(=O)c1ccc(N2CCC(Oc3ccccc3Cl)CC2)nn1` [ChemBL375265], the “BiP and CHOP expression” value in data set [3] was “strongly induced both BiP and CHOP expression”. Besides, the “rescue of cell proliferation with OA” value in data set [4] is “Near total rescue of cell proliferation”. The luciferase activity entry in [5] (setting [7]) was “significant upregulation of luciferase activity”. The negative logarithm of the IC50 (pIC50) on SCD1 is 6.40.

Consider `CNC(=O)c1ccccc1OCC(=O)N1CCN(C(=O)c2ccccc2C(F)(F)F)CC1` [SSI-1, N-Methyl-2-(2-oxo-2-{4-[2-(trifluoromethyl)benzoyl]piperazin-1-yl}ethoxy)benzamide], for which, in [3], the “BiP and CHOP expression” value is “strongly induced both BiP and CHOP expression”. The “rescue of cell proliferation with OA” value in data set [4] was “Near total rescue of cell proliferation”. Besides, the luciferase activity result in data set [5] (setting [7]) is given as “significant upregulation of luciferase activity”.

(Values after US11325892B2, “Compounds and methods for treating cancer” (Mayo Foundation for Medical Education and Research, priority 2014, dated 2022).)
